Data from publication PMC9857996, “Inhibition of Iron Release from Donkey Spleen Ferritin through Malt-Derived Protein Z–Ferulic Acid Interactions” (Foods, 2023).

Target: T1, protein Z (PZ)
T1 construct: gene PAZ1; single band ~40 kDa; three Trp printed (Trp-150, Trp-186, Trp-257)
Assay: Trp fluorescence quenching titration
Assay type: binding, Hordeum vulgare
Conditions: 50.0 mM sodium citrate pH 4.2, 25 °C; 1.0 μM PZ; n = 22.11 ± 2.13 sites per PZ; read-out: K

Kd: 2000 nM
SMILES: COc1cc(/C=C/C(=O)O)ccc1O [ferulic acid]
